In BindingDB's records for patent US11472769 (Eccogene (Shanghai) Co., Ltd., 2022):

The molecules below were run against T1, Amine oxidase [copper-containing] 3 (Homo sapiens, UniProt Q16853) (assay: SSAO Activity Assay).
T1 construct: gene AOC3
Experimental: Amine oxidase activity of recombinant hSSAO, hMAO-A, and hMAO-B isoforms are measured using the MAO-Glo assay kit (Promega, V1402). Ten nL test compounds (with DMSO as vehicle, 0.1% v/v for hSSAO, hMAO-A and hMAO-B) were added into assay plates by Echo, and pre-incubated with 5 μL of enzyme for 30 mins at room temperature before the addition of 5 μL of luminogenic substrate. The substrate concentration is 40 μM for human recombinant SSAO, 40 μM for human recombinant MAO-A, and 4 μM for human recombinant MAO-B. The hSSAO and hMAO-A assays were conducted in the MAO-A reaction buffer in the kit, and the MAO-B assay was conducted in the MAO-B reaction buffer. Oxidation of the substrate was conducted for 1 hr, before the addition of detecting reagent according the manufacture's protocol. The IC50 value of the tested compounds was calculated by fitting the dose response curve using a 4-parameter non-linear regression routine.

T1 sequence (Q16853 whole entry, looked up): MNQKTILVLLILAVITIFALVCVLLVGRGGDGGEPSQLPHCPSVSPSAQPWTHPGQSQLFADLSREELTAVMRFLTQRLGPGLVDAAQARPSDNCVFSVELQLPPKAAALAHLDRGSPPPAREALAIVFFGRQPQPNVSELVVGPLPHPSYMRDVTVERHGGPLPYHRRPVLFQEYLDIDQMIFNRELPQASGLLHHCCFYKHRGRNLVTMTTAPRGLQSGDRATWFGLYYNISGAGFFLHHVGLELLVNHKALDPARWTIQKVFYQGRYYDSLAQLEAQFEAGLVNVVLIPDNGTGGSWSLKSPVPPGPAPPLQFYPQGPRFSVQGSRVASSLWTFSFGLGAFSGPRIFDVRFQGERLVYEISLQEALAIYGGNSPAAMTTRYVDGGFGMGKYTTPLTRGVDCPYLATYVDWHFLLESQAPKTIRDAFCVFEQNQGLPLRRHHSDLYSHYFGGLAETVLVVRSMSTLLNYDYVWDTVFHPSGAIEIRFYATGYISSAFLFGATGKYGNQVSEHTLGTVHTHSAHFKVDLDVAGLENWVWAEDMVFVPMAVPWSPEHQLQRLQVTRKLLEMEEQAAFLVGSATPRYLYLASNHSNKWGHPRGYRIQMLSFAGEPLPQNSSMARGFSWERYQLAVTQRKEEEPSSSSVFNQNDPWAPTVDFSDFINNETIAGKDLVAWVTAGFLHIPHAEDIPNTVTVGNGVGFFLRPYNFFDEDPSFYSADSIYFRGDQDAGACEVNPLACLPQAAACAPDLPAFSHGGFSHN

| SMILES | IC50 |
| --- | --- |
| NC/C(=C\F)COc1ccc(S(=O)(=O)CC23CCC(C4(O)CC4)(CC2)CC3)cc1 [US11472769, Compound 18] | < 20 nM |
| NC/C(=C\F)COc1ccc(S(=O)(=O)CC23CCC(C(=O)NC4CCC4)(CC2)CC3)cc1 [US11472769, Compound 64] | < 20 nM |
| NC/C(=C\F)COc1ccc(S(=O)(=O)C[C@H]2CCCO2)cc1 [US11472769, Compound 24] | < 20 nM |
| NC/C(=C/F)COc1ccc(S(=O)(=O)CC23CCC(NC(=O)C4CC4)(CC2)CC3)cc1 [US11472769, Compound 139] | < 20 nM |
| CO[C@H]1CC[C@H](CS(=O)(=O)c2ccc(OC/C(=C/F)CN)cc2)CC1 [US11472769, Compound 19] | < 20 nM |
| CC1(CS(=O)(=O)c2ccc(OC/C(=C/F)CN)cc2)CCOCC1 [US11472769, Compound 5] | < 20 nM |
| C[C@H](CN1CCOCC1)CS(=O)(=O)c1ccc(OC/C(=C/F)CN)cc1 [US11472769, Compound 112] | in the range around 60 nM |
| NC/C(=C\F)COc1ccc(S(=O)(=O)CC23CCC(NC(=O)CC(F)(F)F)(CC2)CC3)cc1 [US11472769, Compound 79] | < 20 nM |
| NC/C(=C\F)COc1ccc(S(=O)(=O)C[C@H]2CC[C@H](NC(=O)C3CC3)CC2)cc1 [US11472769, Compound 88] | < 20 nM |
| C[C@H](CN1CCC2(CCCC2)C1=O)CS(=O)(=O)c1ccc(OC/C(=C/F)CN)cc1 [US11472769, Compound 109] | in the range around 60 nM |
| CC1(CS(=O)(=O)c2ccc(OC/C(=C/F)CN)cc2F)CCOCC1 [US11472769, Compound 7] | < 20 nM |
| C[C@@H](CN1CCC2(CCCC2)C1=O)CS(=O)(=O)c1ccc(OC/C(=C/F)CN)cc1 [US11472769, Compound 110] | in the range around 60 nM |
| CC(C)C(=O)N(C)CC(C)(C)CS(=O)(=O)c1ccc(OC/C(=C/F)CN)cc1 [US11472769, Compound 96] | < 20 nM |
| NC/C(=C\F)COc1ccc(S(=O)(=O)C[C@@H]2CCCO2)cc1 [US11472769, Compound 23] | in the range around 60 nM |
| NC/C(=C\F)COc1ccc(S(=O)(=O)CC2CCOCC2)cc1 [US11472769, Compound 1] | < 20 nM |
| NC/C(=C\F)COc1ccc(S(=O)(=O)C[C@H]2CC[C@@H](O)CC2)cc1 [US11472769, Compound 15] | < 20 nM |
| C[C@@H](CN1CCOCC1)CS(=O)(=O)c1ccc(OC/C(=C/F)CN)cc1 [US11472769, Compound 113] | < 20 nM |
| NC/C(=C\F)COc1ccc(S(=O)(=O)CC23CCC(C(=O)O)(CC2)CC3)cc1 [US11472769, Compound 146] | in the range around 60 nM |
| COCS(=O)(=O)c1ccc(OC/C(=C/F)CN)cc1 [US11472769, Compound 28] | < 20 nM |

| SMILES | IC50 |
| --- | --- |
| NC/C(=C\F)COc1ccc(S(=O)(=O)C[C@H]2CC[C@H](O)CC2)cc1 [US11472769, Compound 14] | in the range around 60 nM |
| NC/C(=C\F)COc1ccc(S(=O)(=O)CC2CCOCC2)cc1F [US11472769, Compound 9] | < 20 nM |
| NC/C(=C\F)COc1ccc(S(=O)(=O)CC23CCC(N4CCCS4(=O)=O)(CC2)CC3)cc1 [US11472769, Compound 82] | < 20 nM |
| NC/C(=C\F)COc1ccc(S(=O)(=O)CC23CCC(NC(=O)C4CC4)(CC2)CC3)cc1 [US11472769, Compound 76] | < 20 nM |
| C[C@@H](CN1CCCC1=O)CS(=O)(=O)c1ccc(OC/C(=C/F)CN)cc1 [US11472769, Compound 94] | in the range around 60 nM |
| CC1CCN(C23CCC(CS(=O)(=O)c4ccc(OC/C(=C/F)CN)cc4)(CC2)CC3)C1=O (configuration not stated) [US11472769, Compound 83] | < 20 nM |
| C[C@@H](CN1CCCCC1=O)CS(=O)(=O)c1ccc(OC/C(=C/F)CN)cc1 [US11472769, Compound 105] | in the range around 60 nM |
| NC/C(=C\F)COc1ccc(S(=O)(=O)Cc2ccc(C(=O)N3CCCC3)cc2)cc1 [US11472769, Compound 46] | in the range around 60 nM |
| NC/C(=C\F)COc1ccc(S(=O)(=O)CC2CCN(C(=O)c3ccc(F)cc3)CC2)cc1 [US11472769, Compound 39] | < 20 nM |
| CO[C@H]1CC[C@@H](CS(=O)(=O)c2ccc(OC/C(=C/F)CN)cc2)CC1 [US11472769, Compound 20] | < 20 nM |
| NC/C(=C\F)COc1ccc(S(=O)(=O)COCC2CCOCC2)cc1 [US11472769, Compound 30] | < 20 nM |
| C[C@H](CN1CCCC1=O)CS(=O)(=O)c1ccc(OC/C(=C/F)CN)cc1 [US11472769, Compound 93] | > 500 nM |
| N#CC12CCC(CS(=O)(=O)c3ccc(OC/C(=C/F)CN)cc3)(CC1)CC2 [US11472769, Compound 87] | < 20 nM |
| CC(C)n1nc(CS(=O)(=O)c2ccc(OC/C(=C/F)CN)cc2)ccc1=O [US11472769, Compound 102] | < 20 nM |
| NC/C(=C\F)COc1ccc(S(=O)(=O)C[C@H]2CCOC2)cc1 [US11472769, Compound 22] | in the range around 60 nM |
| NC/C(=C\F)COc1ccc(S(=O)(=O)CC2CCCN(C(=O)C3CCCC3)C2)cc1 (configuration not stated) [US11472769, Compound 100] | in the range around 60 nM |
| NC/C(=C\F)COc1ccc(S(=O)(=O)C[C@@H]2CCOC2)cc1 [US11472769, Compound 21] | in the range around 60 nM |
| C[C@H](CN1CCCCC1=O)CS(=O)(=O)c1ccc(OC/C(=C/F)CN)cc1 [US11472769, Compound 104] | in the range around 60 nM |
